Measurements as given in patent publication US20250388605A1, “HETEROBIFUNCTIONAL COMPOUNDS AND METHODS OF TREATING DISEASE” (Halda Therapeutics OpCo, Inc., priority 2022, published 2025).

Assays:
T47D cells = assay: Cellular Growth Inhibition Assay for T47D Cells (CellTiter-Glo); assay type: cell-based, human; settings: 72 hours
Method in brief: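 GI50 values derive from four-parameter regression of CellTiter-Glo 2.0 luminescence, using zero luminescence as baseline. Human breast cancer T47D cells (3000/well; DMEM, 10% FBS, 0.2 units/mL insulin) were exposed for 72 h to compound dilutions at 0.5% DMSO, with dosing starting 24 h after seeding.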

[1] = tested on: T-Rex 293 cell line SC cells lacking increased expression of progesterone receptor isoform B protein; assay: Cellular growth inhibition assay, T-Rex 293 SC cells not exposed to doxycycline (no increased progesterone receptor isoform B expression), CellTiter-Glo; assay type: cell-based; settings: T-Rex 293 SC cells without doxycycline (no increased PR isoform B), 72 hours
Experimental: The SC cells were seeded on poly-D-lysine coated, black clear-bottom 384-well plates at 2500/well, in 25 μL Phenol Red Free Dulbecco's Modified Eagle Medium (DMEM) supplemented with 10% w/w charcoal-dextran treated fetal bovine serum (FBS) and 1% w/w pen-strep, with or without 10 ng/mL doxycycline. Pen-Strep is a commercially available mixture of penicillin G and streptomycin, which is used in mammalian cell culture media to prevent bacterial contamination. Phenol Red Free Dulbecco's Modified Eagle Medium (DMEM) supplemented with 10% w/w charcoal-dextran treated fetal bovine serum (FBS) and 1% w/w pen-strep, with or without 10 ng/mL doxycycline is herein referred to as Treatment Medium. Following seeding of cells in the plates, the plates were spun at 300×g for 30 seconds, then equilibrated to room temperature for 30 minutes, and then deposited in a humidified tissue culture incubator maintained at 37° C. with 5% CO2.
At 24 hours after seeding of the cells, dilutions of test compound were prepared in DMSO and dissolved in Treatment Medium, to achieve a final DMSO concentration of 0.5% w/w, thereby providing the Test Compound Solution. A 25 μL aliquot of the Test Compound Solution was added to cells in the well plates. An equal volume of a solution containing DMSO and Treatment Medium was used as a negative control. Following treatment of cells with Test Compound Solution or said equal volume of a solution containing DMSO and Treatment Medium, the plates were spun at 300×g for 30 seconds, and then left in an incubator for 72 hours.
At the end of the treatment duration, cell viability was quantified with CellTiter-Glo 2.0 reagent (Promega Cat #G9243). For this purpose, plates were equilibrated to room temperature for 30 minutes, and then 25 μL of CellTiter-Glo 2.0 reagent was added to cells in the plate wells. Plates were then agitated on a shaker for two minutes at 500 rpm and subsequently incubated at room temperature for 10 minutes. Following incubation, the plates were spun at 3000×g for 30 seconds, then sealed with an optical adhesive cover, and luminescence readings were measured with an EnVision Plate Reader (Perkin Elmer).
Data was normalized using zero luminescence for baseline. A four-parameter non-linear regression curve fit was applied to dose-response data in GraphPad Prism data analysis software to determine the half-maximal growth inhibitory concentration (GI50) for each test compound.

[2] = tested on: T-Rex 293 cell line SC3 cells having increased expression of androgen receptor protein due to exposure to doxycycline; assay: Cellular growth inhibition, T-Rex 293 SC3 cells with doxycycline (increased androgen receptor expression), CellTiter-Glo; assay type: cell-based; settings: T-Rex 293 SC3 cells with 10 ng/mL doxycycline (increased androgen receptor expression), 72 hours, CellTiter-Glo 2.0
Method in brief: (§1)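 Doxycycline (10 ng/mL) was either included or omitted to toggle wild-type androgen receptor expression in SC3 cells, a T-Rex 293 clone, grown in stripped-serum, phenol red-free medium. After 72 hours with compound, viable cells were quantified by CellTiter-Glo 2.0.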

[3] = tested on: T-Rex 293 cell line SC3 cells lacking increased expression of androgen receptor protein; assay: Cellular growth inhibition, T-Rex 293 SC3 cells without doxycycline (no increased androgen receptor expression), CellTiter-Glo; assay type: cell-based; settings: T-Rex 293 SC3 cells not exposed to doxycycline (no increased androgen receptor expression), 72 hours
Method in brief: as §1

Row | GI50 (T47D cells; Homo sapiens) [nM] | GI50 (T47D cells) [nM] | SMILES | GI50 [1] [nM] | GI50 [2] [nM] | GI50 [3] [nM]
1 | < 500 |  | CCS(=O)(=O)Nc1ccc(Oc2ccc(F)c(OCCOC3CCN(c4ncc(C(=O)N[C@H]5C(C)(C)[C@H](Oc6ccc(C#N)c(Cl)c6)C5(C)C)cn4)CC3)c2F)c(-c2cn(C)c(=O)c3[nH]ccc23)c1 [Compound I-65] | < 500 | < 500 | < 500
2 | < 500 |  | Cn1cc(-c2cc(C(C)(C)O)ccc2Oc2ccc(N3CC(CC4CCN(c5ncc(C(=O)N[C@H]6C(C)(C)[C@H](Oc7ccc(C#N)c(Cl)c7)C6(C)C)cn5)CC4)C3)cc2)c2cc[nH]c2c1=O [Compound I-232] | 500 to 1500 | < 500 | > 3000
3 |  | 500 to 1500 | Cn1cc(-c2cc(C(C)(C)O)ccc2Oc2cccc(N3CC(CC4CCN(c5ncc(C(=O)N[C@H]6C(C)(C)[C@H](Oc7ccc(C#N)c(Cl)c7)C6(C)C)cn5)CC4)C3)c2F)c2cc[nH]c2c1=O [Compound I-196] | > 3000 | < 500 | > 3000
4 | < 500 |  | CCS(=O)(=O)Nc1ccc(Oc2cccc(COC3CCN(c4ncc(C(=O)N[C@H]5C(C)(C)[C@H](Oc6ccc(C#N)c(Cl)c6)C5(C)C)cn4)CC3)c2)c(-c2cn(C)c(=O)c3[nH]ccc23)c1 [Compound I-18, N-((1r, 3r)-3-(3-chloro-4-cyanophenoxy)-2,2,4,4-tetramethylcyclobutyl)-2-(4-((3-(4-(ethylsulfonamido)-2-(6-methyl-7-oxo-6,7-dihydro-1H-pyrrolo[2,3-c]pyridin-4-yl)phenoxy)benzyl)oxy)piperidin-1-yl)pyrimidine-5-carboxamide] | < 500 | < 500 | < 500
5 | < 500 |  | CCS(=O)(=O)Nc1ccc(Oc2cccc(OCCOCCOCCOC3CCN(c4ncc(C(=O)N[C@H]5C(C)(C)[C@H](Oc6ccc(C#N)c(Cl)c6)C5(C)C)cn4)CC3)c2)c(-c2cn(C)c(=O)c3[nH]ccc23)c1 [Compound I-7] | < 500 | < 500 | < 500
6 | < 500 |  | Cn1cc(-c2cc(C(C)(C)O)ccc2Oc2ccc(OCCN3CCN(c4ncc(C(=O)N[C@H]5C(C)(C)[C@H](Oc6ccc(C#N)c(Cl)c6)C5(C)C)cn4)CC3)cc2)c2cc[nH]c2c1=O [Compound I-204] | 500 to 1500 | < 500 | 500 to 1500
7 |  | < 500 | CN(C1CN(c2ccc(Oc3ccc(C(C)(C)O)cc3-c3cn(C)c(=O)c4[nH]ccc34)cc2)C1)C1CN(c2ncc(C(=O)N[C@H]3C(C)(C)[C@H](Oc4ccc(C#N)c(Cl)c4)C3(C)C)cn2)C1 [Compound I-238] | < 500 | < 500 | 500 to 1500
8 |  |  | CCS(=O)(=O)Nc1ccc(Oc2cccc(OCCOCCOCCOCCOCCN(C)c3ncc(C(=O)N[C@H]4C(C)(C)[C@H](Oc5ccc(C#N)c(Cl)c5)C4(C)C)cn3)c2)c(-c2cn(C)c(=O)c3[nH]ccc23)c1 [Compound I-3] | 500 to 1500 | < 500 | > 3000
9 |  |  | CCS(=O)(=O)Nc1ccc(Oc2cccc(OCCN(C)c3ncc(C(=O)N[C@H]4C(C)(C)[C@H](Oc5ccc(C#N)c(Cl)c5)C4(C)C)cn3)c2)c(-c2cn(C)c(=O)c3[nH]ccc23)c1 [Compound I-1, N-((1r, 3r)-3-(3-chloro-4-cyanophenoxy)-2,2,4,4-tetramethylcyclobutyl)-2-((2-(3-(4-(ethylsulfonamido)-2-(6-methyl-7-oxo-6,7-dihydro-1H-pyrrolo[2,3-c]pyridin-4-yl)phenoxy)phenoxy)ethyl)(methyl)amino)pyrimidine-5-carboxamide] | < 500 | < 500 | 500 to 1500
10 | 500 to 1500 |  | Cn1cc(-c2cc(C(C)(C)O)ccc2Oc2cccc(OCCN3CCN(c4ncc(C(=O)N[C@H]5C(C)(C)[C@H](Oc6ccc(C#N)c(Cl)c6)C5(C)C)cn4)CC3)c2F)c2cc[nH]c2c1=O [Compound I-99] |  | < 500 | < 500
11 |  | < 500 | CCS(=O)(=O)c1ccc(Oc2cccc(OCCN3CCN(c4ncc5c(n4)CN([C@H]4C(C)(C)[C@H](Oc6ccc(C#N)c(Cl)c6)C4(C)C)C5=O)CC3)c2F)c(-c2cn(C)c(=O)c3[nH]ccc23)c1 [Compound I-217] |  | < 500 | < 500
12 | < 500 |  | CCS(=O)(=O)N(C)c1ccc(Oc2cccc(N3CCN(C4CN(c5ncc(C(=O)N[C@H]6C(C)(C)[C@H](Oc7ccc(C#N)c(Cl)c7)C6(C)C)cn5)C4)CC3)c2)c(-c2cn(C)c(=O)c3[nH]ccc23)c1 [Compound I-118] |  | < 500 | > 3000
13 | 500 to 1500 |  | Cn1cc(-c2cc(C(C)(C)O)ccc2Oc2cccc(CCCN3CCN(c4ncc(C(=O)N[C@H]5C(C)(C)[C@H](Oc6ccc(C#N)c(Cl)c6)C5(C)C)cn4)CC3)c2F)c2cc[nH]c2c1=O [Compound I-143] |  | < 500 | < 500
14 | < 500 |  | Cn1cc(-c2ccccc2Oc2cccc(OCCN3CCN(c4ncc(C(=O)N[C@H]5C(C)(C)[C@H](Oc6ccc(C#N)c(Cl)c6)C5(C)C)cn4)CC3)c2)c2cc[nH]c2c1=O [Compound I-98] |  | < 500 | 500 to 1500
15 |  | < 500 | CCS(=O)(=O)Nc1ccc(Oc2cccc(N3CC(CC4CN(c5ncc(C(=O)N[C@H]6C(C)(C)[C@H](Oc7ccc(C#N)c(Cl)c7)C6(C)C)cn5)C4)C3)c2)c(-c2cn(C)c(=O)c3[nH]ccc23)c1 [Compound I-158] |  | < 500 | > 3000
16 | 500 to 1500 |  | Cn1cc(-c2cc(C(C)(C)O)ccc2Oc2cccc(OCCN3CCN(c4ncc(C(=O)N[C@H]5C(C)(C)[C@H](Oc6ccc(C#N)c(Cl)c6)C5(C)C)cn4)CC3)c2)c2cc[nH]c2c1=O [Compound I-96] |  | < 500 | < 500
17 | < 500 |  | CCS(=O)(=O)c1ccc(OCC(CCCN2CCN(c3ncc(C(=O)NC4C(C)(C)C(Oc5ccc(C#N)c(Cl)c5)C4(C)C)cn3)CC2)C2CC2)c(-c2cn(C)c(=O)c3[nH]ccc23)c1 (stereo not shown) [Compound I-231, N-[3-(3-chloro-4-cyano-phenoxy)-2,2,4,4-tetramethyl-cyclobutyl]-2-[4-[4-cyclopropyl-5-[4-ethylsulfonyl-2-(6-methyl-7-oxo-1H-pyrrolo[2,3-c]pyridin-4-yl)phenoxy]pentyl]piperazin-1-yl]pyrimidine-5-carboxamide] |  | < 500 | < 500
18 | < 500 |  | CCS(=O)(=O)Nc1ccc(Oc2cccc(CCN3CC4CN(c5ncc(C(=O)N[C@H]6C(C)(C)[C@H](Oc7ccc(C#N)c(Cl)c7)C6(C)C)cn5)CC4C3)c2)c(-c2cn(C)c(=O)c3[nH]ccc23)c1 (stereo partly shown) [Compound I-119] |  | < 500 | < 500
19 | 500 to 1500 |  | Cn1cc(-c2cc(C(C)(C)O)ccc2Oc2cccc(N3CC(N4CCN(c5ncc(C(=O)N[C@H]6C(C)(C)[C@H](Oc7ccc(C#N)c(Cl)c7)C6(C)C)cn5)CC4)C3)c2)c2cc[nH]c2c1=O [Compound I-105] |  | < 500 | < 500
20 |  | < 500 | Cn1cc(-c2cc(C(C)(C)O)ccc2Oc2cccc(CCOC3CCN(c4ncc(C(=O)N[C@H]5C(C)(C)[C@H](Oc6ccc(C#N)c(Cl)c6)C5(C)C)cn4)CC3)c2)c2cc[nH]c2c1=O [Compound I-193] |  | < 500 | < 500
21 | 1500 to 3000 |  | Cn1cc(-c2cc(N)ccc2Oc2cccc(OCCN3CCN(c4ncc(C(=O)N[C@H]5C(C)(C)[C@H](Oc6ccc(C#N)c(Cl)c6)C5(C)C)cn4)CC3)c2F)c2cc[nH]c2c1=O [Compound I-100] |  | < 500 | > 3000
